Patent publication US20170000702A1, “PERSONAL CARE COMPOSITIONS COMPRISING A SENSATE” (The Gillette Park, priority 2015, published 2017)
Read-outs that look alike come from different tables or passages of the source.

Columns and labels:
human TRPV1 [1] = biological target: T1, human TRPV1 (Homo sapiens, UniProt Q8NER1); test: Pre-Incubation Test Method, TRPV1 (FLIPR intracellular calcium, capsaicin activator); type: cell-based
T1 construct: expressed in transfected cells; host or cells: HEK-293
Procedure: (§1) The Pre-Incubation Test and Direct Addition Test Methods, as defined herein, can be conducted on either TRPV1 or TRPA1 receptors.
(§2) Pre-Incubation Test Method: First, the intracellular calcium ion (Ca^+2) levels in TRPV1 and TRPA1 receptors is measured. […] Cells are detached with addition of 10 ml of PBS (phosphate buffered saline) by hand shaking gently. Cells are transferred to a 50 ml tube and centrifuged at 850 rpm for 3 minutes to remove PBS. After centrifugation, a pellet of cells is formed in the bottom of the tube separating them from the supernatant solution. […] Fluo-4 is a fluorescent dye used for quantifying cellular Ca^2+ concentrations in the 100 nM to 1 microM range. At the end of the 30 minutes, 45 ml of assay buffer [1× HBSS (Hank's Balanced Salt Solution), 20 mM HEPES (4-(2-Hydroxyethyl)-1-piperazineethanesulfonic acid)] is added to wash cells and the resulting combination is then centrifuged at 850 rpm for 3 minutes to remove excess buffer and Fluo-4 AM calcium indicator.
(§3) The pellet cells are re-suspended in 10 ml assay buffer and 90 μl aliquots (˜50,000 cells) per well delivered to a 96-well assay plate containing 10 μl of test compounds (1 mM in assay buffer, final concentration 100 μM) or buffer control and incubated at room temperature for 30 minutes. […] The FLIPR assay is an accepted method for detecting changes in intracellular calcium concentration. Then 20 μl of the activators [1.8 μM Capsaicin (final concentration 300 nM) for TRPV1 or 300 μM AITC (final concentration 50 μM) for TRPA1 is added by FLIPR automatically and fluorescence recorded immediately.

human TRPA1 [2] = biological target: T2, human TRPA1 (Homo sapiens, UniProt O75762); test: Pre-Incubation Test Method, TRPA1 (FLIPR intracellular calcium, AITC activator); type: cell-based
T2 construct: expressed in transfected cells; host or cells: HEK-293
Procedure: as §1, §2, §3

human TRPV1 [3] = biological target: T1, human TRPV1; test: Direct Addition Test Method, TRPV1 (FLIPR intracellular calcium); type: cell-based
Procedure: as §1, §2, §3
(§4) Direct Addition Test Method (for determining the direct effect of test compounds on TRPV1 and TRPA1): All procedures are same as the pre-incubation test except 10 μl assay buffer instead of 10 μl test compounds in the 96-well assay plates. The fluorescence is measured immediately after addition of 20 μl of 600 μM each compound (final concentration 100 μM). The 20 μl of activator (capsaicin or AITC) is as the positive control. The percentage of up-regulation or down-regulation is calculated based on the fluorescence measurement.

human TRPA1 [4] = biological target: T2, human TRPA1; test: Direct Addition Test Method, TRPA1 (FLIPR intracellular calcium); type: cell-based
Procedure: as §1, §2, §3, §4

[5] = In use irritation Test 2 (single variable shave test with panelists); type: in vivo; conditions: control 5.60
Procedure: • In use irritation Test 2: Five samples are produced with the same blank testing formulation as in Test 1, above. Samples are tested with panelists in a single variable shave test with only the addition and level of sensate being varied.

[6] = In use irritation Test 1 (single variable shave test with panelists); type: in vivo; conditions: control 6.3
Procedure: 10. In Use Irritation Data: • In use irritation Test 1: Five samples are produced with the following formulation. Samples are tested with panelists in a single variable shave test with only the addition and level of sensate being varied. Respondents provide average irritation ratings summarized below. • Testing formula: […]

[7] = TRPV1, HEK-293 cells, test compound final concentration 100 μM, 30 minutes pre-incubation, activator Capsaicin 300 nM
[8] = TRPA1, HEK-293 cells, test compound final concentration 100 μM, 30 minutes pre-incubation, activator AITC 50 μM
[9] = TRPV1, HEK-293 cells, compound final concentration 100 μM, no pre-incubation, capsaicin as positive control
[10] = TRPA1, HEK-293 cells, compound final concentration 100 μM, no pre-incubation, AITC as positive control
[11] = sensate added to control formula at 0.2%

T2 sequence (O75762 whole entry): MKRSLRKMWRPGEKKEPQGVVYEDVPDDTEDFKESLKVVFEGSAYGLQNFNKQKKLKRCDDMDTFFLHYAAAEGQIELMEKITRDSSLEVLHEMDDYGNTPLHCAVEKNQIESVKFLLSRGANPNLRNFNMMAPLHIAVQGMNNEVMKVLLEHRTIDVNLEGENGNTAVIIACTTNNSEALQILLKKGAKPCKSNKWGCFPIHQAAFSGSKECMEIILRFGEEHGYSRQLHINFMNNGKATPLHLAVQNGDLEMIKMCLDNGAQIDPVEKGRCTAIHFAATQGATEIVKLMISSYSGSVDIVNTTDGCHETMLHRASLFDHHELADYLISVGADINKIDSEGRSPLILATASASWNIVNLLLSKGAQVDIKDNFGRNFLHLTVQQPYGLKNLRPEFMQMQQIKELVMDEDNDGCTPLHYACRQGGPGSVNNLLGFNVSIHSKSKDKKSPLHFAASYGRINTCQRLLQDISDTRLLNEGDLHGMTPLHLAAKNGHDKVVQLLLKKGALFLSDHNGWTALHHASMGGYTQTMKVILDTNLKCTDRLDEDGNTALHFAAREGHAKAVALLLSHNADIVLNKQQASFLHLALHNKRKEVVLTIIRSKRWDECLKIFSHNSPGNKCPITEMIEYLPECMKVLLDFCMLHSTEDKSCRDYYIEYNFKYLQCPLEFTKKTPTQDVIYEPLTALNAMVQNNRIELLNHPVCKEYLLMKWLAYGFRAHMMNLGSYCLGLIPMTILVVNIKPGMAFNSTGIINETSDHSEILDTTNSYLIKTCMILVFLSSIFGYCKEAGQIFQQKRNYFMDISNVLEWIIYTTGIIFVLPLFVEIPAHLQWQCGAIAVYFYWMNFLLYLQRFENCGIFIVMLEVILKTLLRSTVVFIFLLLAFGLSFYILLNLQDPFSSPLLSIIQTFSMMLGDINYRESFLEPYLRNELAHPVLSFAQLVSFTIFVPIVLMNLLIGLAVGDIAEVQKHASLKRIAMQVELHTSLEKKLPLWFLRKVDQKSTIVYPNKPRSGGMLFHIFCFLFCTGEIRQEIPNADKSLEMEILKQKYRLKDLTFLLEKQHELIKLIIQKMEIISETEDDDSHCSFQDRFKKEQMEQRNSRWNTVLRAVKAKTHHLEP
T1 sequence (Q8NER1 whole entry): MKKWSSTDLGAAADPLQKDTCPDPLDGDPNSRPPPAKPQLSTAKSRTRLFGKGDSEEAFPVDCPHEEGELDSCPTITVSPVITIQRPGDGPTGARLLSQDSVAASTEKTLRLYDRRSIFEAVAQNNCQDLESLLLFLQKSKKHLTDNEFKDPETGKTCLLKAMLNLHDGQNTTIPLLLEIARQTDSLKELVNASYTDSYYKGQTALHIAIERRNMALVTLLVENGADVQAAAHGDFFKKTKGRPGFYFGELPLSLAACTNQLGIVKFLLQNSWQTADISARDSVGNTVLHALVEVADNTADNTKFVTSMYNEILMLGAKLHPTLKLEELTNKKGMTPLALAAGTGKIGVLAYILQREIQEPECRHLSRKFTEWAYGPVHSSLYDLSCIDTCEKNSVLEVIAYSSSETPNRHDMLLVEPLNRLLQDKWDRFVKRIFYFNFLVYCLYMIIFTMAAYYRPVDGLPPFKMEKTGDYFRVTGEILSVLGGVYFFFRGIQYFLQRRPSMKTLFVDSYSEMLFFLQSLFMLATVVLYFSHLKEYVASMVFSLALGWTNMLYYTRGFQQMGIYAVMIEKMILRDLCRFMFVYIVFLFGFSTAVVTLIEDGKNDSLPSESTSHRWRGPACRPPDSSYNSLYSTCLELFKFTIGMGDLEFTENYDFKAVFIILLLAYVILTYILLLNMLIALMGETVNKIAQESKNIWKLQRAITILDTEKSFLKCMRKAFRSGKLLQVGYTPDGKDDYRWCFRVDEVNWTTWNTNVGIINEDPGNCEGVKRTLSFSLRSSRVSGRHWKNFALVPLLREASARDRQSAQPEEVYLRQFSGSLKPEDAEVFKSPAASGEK

Row | SMILES | Pre-incubation % Regulation (human TRPV1 [1]; [7]) | Pre-incubation % Regulation (human TRPA1 [2]; [8]) | Direct Addition % Regulation (human TRPV1 [3]; [9]) | Direct Addition % Regulation (human TRPA1 [4]; [10]) | also measured
1 | C=C1CCC(C)C(C)(C)C1/C=C/C(C)=O (stereo not shown) | 22.16% | 23.55% | 5.24% | 4.96% | Avg Irritation Score ([5]; sensate at 0.1% in control formulation): 5.40
2 | Cc1cc(O)ccc1Cl [4-chloro-3-methylphenol] | 47.49% | −0.43% | 292.92% | 319.54% | Avg Irritation Score [6, 11]: 4.3
3 | CC(=O)CCC=C(C)C [6-Methyl-5-hepten-2-one, 6-methyl-5-hepten-2-one] |  |  |  |  | Avg Irritation Score ([6]; sensate added to control formula at 0.15%): 6.0
4 | OCc1ccccc1 [Benzyl Alcohol, benzyl alcohol] | 51.18% | 14.61% | −2.09% | 21.39% | Avg Irritation Score ([6]; sensate added to control formula at 1%): 4.8
5 | Cc1cc(O)cc(C)c1Cl [Chloroxylenol, chloroxylenol] | 37.52% | −0.08% | 326.69% | 381.06% | Avg Irritation Score [6, 11]: 5.2
6 | CC(C)C(=O)OCCOc1ccccc1 [Phenoxyethyl Isobutyrate, phenoxyethyl isobutyrate] | 41.34% | 36.8% | −6.84% | −7.84% | Avg Irritation Score ([5]; sensate at 0.13% in control formulation): 4.45
7 | CC(=O)[O][Zn][O]C(C)=O [Zinc Acetate, zinc acetate] |  |  |  |  | Pre-incubation % Regulation (human TRPV1 [1]): 35.2%; Pre-incubation % Regulation (human TRPA1 [2]): 21.67%; Direct Addition % Regulation (human TRPV1 [3]): 0.88%; Direct Addition % Regulation (human TRPA1 [4]): −0.66%; Avg Irritation Score ([5]; sensate at 0.03% in control formulation): 4.55
